Source: PubChem BioAssay (NCI)
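Compound exposure: 48 hours, 5 concentrations, 96-well plates. The concentration for full growth arrest is given as TGI.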

Experiments:
Test in all cases: DTP human tumour cell line panel, 48 h
[1] = test system: SNB-75 CNS
[2] = test system: MALME-3M melanoma
[3] = test system: SF-295 CNS
[4] = test system: SK-MEL-28 melanoma
[5] = test system: SNB-19 CNS
[6] = test system: UACC-62 melanoma
[7] = test system: UO-31 renal
[8] = test system: M14 melanoma
[9] = test system: SW-620 colon
[10] = test system: OVCAR-4 ovarian
[11] = test system: DU-145 prostate

Work on CN1CC(c2ccccc2)=Cc2c1ccc(N)c2N=N yielded a TGI [1] greater than 100 µM, a TGI [2] greater than 100 µM and a TGI [3] greater than 100 µM. The TGI [4] was greater than 100 µM, the TGI [5] was greater than 100 µM and the TGI [6] was greater than 100 µM. The TGI [7] was greater than 100 µM, the TGI [8] was greater than 100 µM and the TGI [9] was greater than 100 µM. It also gave a TGI [10] greater than 100 µM.

With C=C/C(C)=C/[C@H](C)C(=O)C[C@H](O)CC1CC(=O)NC(=O)C1 the TGI [1] was greater than 100 µM, the TGI [2] was greater than 100 µM and the TGI [3] was greater than 100 µM. It also gave a TGI [4] greater than 91.8 µM, a TGI [5] greater than 94.7 µM and a TGI [6] greater than 100 µM. The TGI [7] was greater than 100 µM, the TGI [9] was greater than 100 µM and the TGI [10] was greater than 100 µM.

O=C1Nc2ccccc2C(=O)OC(Cc2ccccc2)=Nc2ccccc21 was tested, and the TGI [1] was greater than 100 µM, the TGI [3] was greater than 100 µM and the TGI [4] was greater than 100 µM. The TGI [5] was greater than 100 µM, the TGI [6] was greater than 100 µM and the TGI [7] was greater than 100 µM. It also gave a TGI [8] greater than 100 µM, a TGI [9] greater than 100 µM and a TGI [11] greater than 100 µM. The TGI [10] was greater than 100 µM.

CN(C)[C@@H]1C(=O)C(C(N)=O)=C(O)[C@@]2(O)C(=O)C3=C(O)c4c(O)cccc4C[C@H]3C[C@@H]12 was tested, and the TGI [1] was 2.98 µM, the TGI [2] was 2.92 µM and the TGI [3] was 3.22 µM. It also gave a TGI [4] of 3.19 µM, a TGI [5] of 4.47 µM and a TGI [6] of 3.14 µM. The TGI [7] was 4.08 µM, the TGI [8] was 3.87 µM and the TGI [9] was 9.84 µM. For the same molecule, the TGI [10] was 3.26 µM.

For COC(=O)Cc1c([C@@H]2Nc3ccccc3[C@H]2CC(=O)OC)[nH]c2ccccc12, the TGI [1] was greater than 100 µM, the TGI [3] was greater than 100 µM and the TGI [4] was greater than 100 µM. For the same molecule, the TGI [5] was greater than 100 µM, the TGI [6] was 34.3 µM and the TGI [7] was 81.6 µM. The TGI [9] was greater than 100 µM, the TGI [11] was greater than 100 µM and the TGI [10] was greater than 100 µM.

Molecule COc1c2nc(CCl)n(C)c(=O)c2c(OC)c2c(=O)n(C)c(CCl)nc12 has a TGI [1] of 3.8 µM, a TGI [2] of 3.44 µM and a TGI [3] of 5.16 µM. The TGI [4] was 3.94 µM, the TGI [5] was 5.07 µM and the TGI [7] was 2.49 µM. The TGI [9] was 2.6 µM, the TGI [11] was 14 µM and the TGI [10] was greater than 100 µM.

In the case of COc1ccc(-c2nc3ncccn3c2-c2ccc(S(C)=O)cc2)cc1 (stereo not given), the TGI [1] is reported as greater than 100 µM, the TGI [3] is reported as greater than 100 µM and the TGI [4] is reported as greater than 100 µM. For the same molecule, the TGI [5] was greater than 100 µM, the TGI [6] was greater than 100 µM and the TGI [7] was greater than 100 µM. For the same molecule, the TGI [8] was greater than 100 µM, the TGI [9] was greater than 100 µM and the TGI [11] was greater than 100 µM. For the same molecule, the TGI [10] was greater than 100 µM.

Work on c1ccc2[nH]c(-c3nc4ccccc4o3)nc2c1 yielded a TGI [1] greater than 100 µM, a TGI [2] greater than 100 µM and a TGI [3] greater than 100 µM. The TGI [4] was greater than 100 µM, the TGI [7] was greater than 100 µM and the TGI [8] was greater than 100 µM. The TGI [10] was greater than 100 µM.

Molecule N#Cc1c(-c2ccco2)c2c(n(C3OC(CO)C(O)C(O)C3O)c1=S)CCCC2 (stereo not given) has a TGI [1] of 0.0981 µM, a TGI [2] greater than 100 µM and a TGI [3] greater than 100 µM. The TGI [4] was greater than 100 µM, the TGI [6] was greater than 100 µM and the TGI [8] was greater than 100 µM. The TGI [11] was greater than 100 µM and the TGI [10] was greater than 100 µM.

COc1cc2c(cc1OC)C(=O)N(c1ccc(O)cc1)C2 was tested, and the TGI [2] was greater than 100 µM, the TGI [3] was greater than 100 µM and the TGI [4] was greater than 100 µM. It also gave a TGI [5] greater than 100 µM, a TGI [6] greater than 100 µM and a TGI [8] greater than 100 µM. It also gave a TGI [9] greater than 100 µM, a TGI [11] greater than 100 µM and a TGI [10] greater than 100 µM.

With Nc1cc2c(cc1[N+](=O)[O-])[nH]c1c(-c3ccccc3)nccc12 the TGI [1] was 55.7 µM, the TGI [2] was 52.1 µM and the TGI [3] was 53.4 µM. The TGI [4] was 87.3 µM, the TGI [5] was 76.7 µM and the TGI [6] was 27.8 µM. It also gave a TGI [7] of 28.9 µM, a TGI [9] greater than 81.5 µM and a TGI [10] of 50.6 µM.

O=c1cnn(C2OC(CO)C(O)C(F)C2O)c(=O)[nH]1 (stereo not given) gave a TGI [2] greater than 100 µM, a TGI [3] greater than 100 µM and a TGI [4] greater than 100 µM. It also gave a TGI [5] greater than 100 µM, a TGI [6] greater than 100 µM and a TGI [7] greater than 100 µM. The TGI [8] was greater than 100 µM, the TGI [9] was greater than 100 µM and the TGI [11] was greater than 100 µM. The TGI [10] was greater than 100 µM.

CC1=C/C(=C(\c2ccc(N(C)C)cc2)c2ccc([N+](C)(C)C)cc2)C=CC1=[N+](C)C gave a TGI [1] of 10.6 µM, a TGI [2] of 32.3 µM and a TGI [3] of 19.3 µM. The TGI [4] was 31.4 µM, the TGI [5] was 89.4 µM and the TGI [6] was 19.3 µM. It also gave a TGI [7] of 78.1 µM, a TGI [8] of 43 µM and a TGI [9] of 46.3 µM. It also gave a TGI [10] of 32.9 µM.

Work on CCOC(=O)NNC(=O)NCCNC(=O)NNC(=O)OCC yielded a TGI [1] greater than 100 µM, a TGI [2] greater than 100 µM and a TGI [4] greater than 100 µM. The TGI [5] was greater than 100 µM, the TGI [6] was greater than 100 µM and the TGI [7] was greater than 100 µM. For the same molecule, the TGI [8] was greater than 100 µM, the TGI [9] was greater than 100 µM and the TGI [11] was greater than 100 µM. The TGI [10] was greater than 100 µM.

Cc1ccc(-c2cc(-c3ccco3)nc(N)n2)o1 was tested, and the TGI [1] was greater than 100 µM, the TGI [2] was greater than 100 µM and the TGI [3] was greater than 100 µM. The TGI [4] was greater than 100 µM, the TGI [5] was greater than 100 µM and the TGI [6] was greater than 100 µM. For the same molecule, the TGI [7] was greater than 100 µM, the TGI [8] was greater than 100 µM and the TGI [9] was greater than 100 µM. For the same molecule, the TGI [10] was greater than 100 µM.

With O=c1[nH]cnc2c1nnn2CCCn1nnc2c(=O)[nH]cnc21 the TGI [3] was greater than 100 µM, the TGI [4] was greater than 100 µM and the TGI [5] was greater than 100 µM. It also gave a TGI [6] greater than 100 µM, a TGI [7] greater than 100 µM and a TGI [8] greater than 100 µM. The TGI [9] was greater than 100 µM and the TGI [10] was greater than 100 µM.

For CCCCCCCCCCCCNC(=O)NCC(OCC)OCC, the TGI [1] was greater than 10 µM, the TGI [3] was greater than 10 µM and the TGI [4] was greater than 10 µM. It also gave a TGI [5] greater than 10 µM, a TGI [6] greater than 10 µM and a TGI [8] greater than 10 µM. For the same molecule, the TGI [9] was greater than 10 µM, the TGI [11] was greater than 10 µM and the TGI [10] was greater than 10 µM.

For CC(=O)N[C@@H](Cc1ccc(O)cn1)C(=O)NCc1cccc(F)c1, the TGI [2] was greater than 100 µM, the TGI [3] was greater than 100 µM and the TGI [4] was greater than 100 µM. The TGI [5] was greater than 100 µM, the TGI [6] was greater than 100 µM and the TGI [7] was greater than 100 µM. It also gave a TGI [8] greater than 100 µM, a TGI [9] greater than 100 µM and a TGI [11] greater than 100 µM. The TGI [10] was greater than 100 µM.

Cc1ccc(OP2(=O)Oc3ccc4ccccc4c3CN2c2ccc(Cl)cc2)cc1C (stereo not given) showed a TGI [1] greater than 100 µM, a TGI [2] greater than 100 µM and a TGI [3] greater than 100 µM. The TGI [4] was greater than 100 µM, the TGI [5] was greater than 100 µM and the TGI [6] was greater than 100 µM. The TGI [7] was greater than 100 µM, the TGI [9] was greater than 100 µM and the TGI [10] was greater than 100 µM.

In the case of COc1c2cc(C(C)(C)C)cc1CSCc1cc(C(C)(C)C)cc(c1OC)CCCCC2, the TGI [1] is reported as greater than 50 µM, the TGI [2] is reported as greater than 50 µM and the TGI [3] is reported as greater than 50 µM. It also gave a TGI [4] greater than 50 µM, a TGI [5] greater than 50 µM and a TGI [6] greater than 50 µM. The TGI [7] was greater than 50 µM, the TGI [8] was greater than 50 µM and the TGI [9] was greater than 50 µM. It also gave a TGI [11] greater than 50 µM.

In the case of O=S(=O)(O)c1ccc(NN(c2c(O)ccc3ccccc23)S(=O)(=O)O)cc1, the TGI [2] is reported as greater than 100 µM, the TGI [3] is reported as greater than 100 µM and the TGI [4] is reported as greater than 100 µM. It also gave a TGI [5] greater than 100 µM, a TGI [6] greater than 100 µM and a TGI [7] greater than 100 µM. For the same molecule, the TGI [8] was greater than 100 µM, the TGI [9] was greater than 100 µM and the TGI [11] was greater than 100 µM. For the same molecule, the TGI [10] was greater than 100 µM.

Molecule CO/C(=N\N=C(/C)C(F)(F)F)c1ccncc1 has a TGI [1] greater than 100 µM, a TGI [2] greater than 100 µM and a TGI [4] greater than 100 µM. For the same molecule, the TGI [5] was greater than 100 µM, the TGI [6] was greater than 100 µM and the TGI [7] was greater than 100 µM. For the same molecule, the TGI [8] was greater than 100 µM, the TGI [11] was greater than 100 µM and the TGI [10] was greater than 100 µM.
